Reference: the NIST ThermoML archive (doi:10.1021/je900641w)
Numbers after ± are expanded uncertainties.

Settings: 1000 kPa, Liquid, Coaxial cylinder method

thermal conductivity (302.75 K) | thermal conductivity (332.54 K) | thermal conductivity (362.39 K) | thermal conductivity (392.16 K) | Structure (SMILES)
0.1605 ± 0.0071 W/m/K | 0.1452 ± 0.0064 W/m/K | 0.1317 ± 0.0059 W/m/K | 0.1183 ± 0.0053 W/m/K | COCCOC [1,2-dimethoxyethane]
0.1469 ± 0.0065 W/m/K | 0.1407 ± 0.0063 W/m/K | 0.1345 ± 0.006 W/m/K | 0.1274 ± 0.0057 W/m/K | COCCOCCOCCOCCOC [2,5,8,11,14-pentaoxapentadecane]
0.1433 ± 0.0064 W/m/K | 0.137 ± 0.0061 W/m/K | 0.1303 ± 0.0058 W/m/K | 0.1227 ± 0.0055 W/m/K | COCCOCCOCCOC [2,5,8,11-tetraoxadodecane]
0.1461 ± 0.0065 W/m/K | 0.1324 ± 0.0059 W/m/K | 0.1205 ± 0.0054 W/m/K | 0.1076 ± 0.0048 W/m/K | COCCOCCOC [2,5,8-trioxanonane]
0.1242 ± 0.0056 W/m/K | 0.1169 ± 0.0052 W/m/K | 0.1085 ± 0.0049 W/m/K | 0.099 ± 0.0045 W/m/K | COCC(C)OCC(C)OC (centres undefined) [2-methoxy-1-(2-methoxy-1-methylethoxy)propane]
0.1409 ± 0.0037 W/m/K | 0.1304 ± 0.0035 W/m/K | 0.1194 ± 0.0032 W/m/K | 0.1098 ± 0.003 W/m/K | c1ccccc1 [benzene]
